Reference: the NIST ThermoML archive (doi:10.1021/je700260f)
Several values for one entry are separate records, joined by “and”; a condition that tells them apart may be missing. Identical values can stand only once.

Conditions: 283.15 K, Liquid, Vibrating tube method

FC(C(F)(F)F)C(F)(F)F [1,1,1,2,3,3,3-heptafluoropropane]
Conditions | mass density
25072 kPa | 1552.4 kg/m3
25508 kPa | 1553.7 kg/m3
25593 kPa | 1553.9 kg/m3
25630 kPa | 1554.1 kg/m3
25722 kPa | 1554.3 kg/m3
25865 kPa | 1554.8 kg/m3
25945 kPa | 1555.1 kg/m3
25993 kPa | 1555.1 kg/m3
26030 kPa | 1555.3 kg/m3
26068 kPa | 1555.4 kg/m3
26113 kPa | 1555.4 kg/m3
26152 kPa | 1555.7 kg/m3
26191 kPa | 1555.8 kg/m3
26249 kPa | 1555.9 kg/m3
26283 kPa | 1556 kg/m3
26327 kPa | 1556.3 kg/m3
26367 kPa | 1556.3 kg/m3
26406 kPa | 1556.2 kg/m3
26446 kPa | 1556.3 kg/m3
26479 kPa | 1556.8 kg/m3
26519 kPa | 1556.7 kg/m3
26559 kPa | 1556.8 kg/m3
26599 kPa | 1557 kg/m3
26650 kPa | 1557.1 kg/m3
26683 kPa | 1557.3 kg/m3
26723 kPa | 1557.3 kg/m3
26757 kPa | 1557.3 kg/m3
26796 kPa | 1557.5 kg/m3
26886 kPa | 1557.8 kg/m3
26921 kPa | 1557.9 kg/m3
26968 kPa | 1558.1 kg/m3
27001 kPa | 1558.1 kg/m3
27029 kPa | 1558.2 kg/m3
27058 kPa | 1558.3 kg/m3
27082 kPa | 1558.3 kg/m3
27131 kPa | 1558.5 kg/m3
27170 kPa | 1558.7 kg/m3
27199 kPa | 1558.8 kg/m3
27228 kPa | 1558.8 kg/m3
27271 kPa | 1558.9 kg/m3
27533 kPa | 1559.8 kg/m3
27563 kPa | 1559.9 kg/m3
27596 kPa | 1559.8 kg/m3
27629 kPa | 1560 kg/m3
27673 kPa | 1560 kg/m3
27710 kPa | 1560.2 kg/m3
27743 kPa | 1560.2 kg/m3
27816 kPa | 1560.5 kg/m3
27850 kPa | 1560.7 kg/m3
27880 kPa | 1560.8 kg/m3
27914 kPa | 1560.8 kg/m3
27940 kPa | 1560.9 kg/m3
27979 kPa | 1561 kg/m3
28024 kPa | 1561.2 kg/m3
28058 kPa | 1561.1 kg/m3
28091 kPa | 1561.4 kg/m3
28124 kPa | 1561.5 kg/m3
28168 kPa | 1561.6 kg/m3
28466 kPa | 1562.5 kg/m3
28514 kPa | 1562.7 kg/m3
28558 kPa | 1562.7 kg/m3
28591 kPa | 1562.8 kg/m3
28620 kPa | 1562.8 kg/m3
28657 kPa | 1562.9 kg/m3
28690 kPa | 1563.1 kg/m3
28727 kPa | 1563.2 kg/m3
28761 kPa | 1563.3 kg/m3
28795 kPa | 1563.4 kg/m3
28837 kPa | 1563.6 kg/m3
28875 kPa | 1563.5 kg/m3
29088 kPa | 1564.2 kg/m3
29357 kPa | 1565 kg/m3
29424 kPa | 1565.2 kg/m3
29452 kPa | 1565.2 kg/m3
29578 kPa | 1565.7 kg/m3
29617 kPa | 1565.6 kg/m3
29646 kPa | 1565.8 kg/m3
29684 kPa | 1565.9 kg/m3
29712 kPa | 1565.9 kg/m3
29745 kPa | 1566.1 kg/m3
29784 kPa | 1566.2 kg/m3
29814 kPa | 1566.3 kg/m3
29853 kPa | 1566.4 kg/m3
29877 kPa | 1566.5 kg/m3
29911 kPa | 1566.5 kg/m3
29944 kPa | 1566.6 kg/m3
29974 kPa | 1566.7 kg/m3
30021 kPa | 1566.8 kg/m3
30050 kPa | 1567 kg/m3
30079 kPa | 1567 kg/m3
30151 kPa | 1567.2 kg/m3
30190 kPa | 1567.4 kg/m3
30219 kPa | 1567.5 kg/m3
30259 kPa | 1567.4 kg/m3
30288 kPa | 1567.5 kg/m3
30323 kPa | 1567.7 kg/m3
30361 kPa | 1567.8 kg/m3
30390 kPa | 1567.7 kg/m3
30425 kPa | 1567.9 kg/m3
30460 kPa | 1567.9 kg/m3
30499 kPa | 1568.2 kg/m3
30529 kPa | 1568.3 kg/m3
30560 kPa | 1568.3 kg/m3
30595 kPa | 1568.5 kg/m3
30635 kPa | 1568.6 kg/m3
30666 kPa | 1568.6 kg/m3
30696 kPa | 1568.7 kg/m3
30743 kPa | 1568.9 kg/m3
30783 kPa | 1569 kg/m3
30830 kPa | 1569.1 kg/m3
30861 kPa | 1569.2 kg/m3
30897 kPa | 1569.2 kg/m3
30937 kPa | 1569.4 kg/m3
30968 kPa | 1569.5 kg/m3
30999 kPa | 1569.5 kg/m3
31030 kPa | 1569.6 kg/m3
31065 kPa | 1569.7 kg/m3
31105 kPa | 1569.9 kg/m3
31140 kPa | 1569.9 kg/m3
31187 kPa | 1570 kg/m3
31230 kPa | 1570.2 kg/m3
31267 kPa | 1570.2 kg/m3
31308 kPa | 1570.4 kg/m3
31350 kPa | 1570.6 kg/m3
31392 kPa | 1570.6 kg/m3
31429 kPa | 1570.7 kg/m3
31511 kPa | 1570.9 kg/m3
31547 kPa | 1571.1 kg/m3
31588 kPa | 1571.2 kg/m3
31620 kPa | 1571.3 kg/m3
31657 kPa | 1571.3 kg/m3
31697 kPa | 1571.5 kg/m3
31750 kPa | 1571.7 kg/m3
31782 kPa | 1571.7 kg/m3
31819 kPa | 1571.7 kg/m3
31855 kPa | 1571.9 kg/m3
31897 kPa | 1572 kg/m3
32027 kPa | 1572.4 kg/m3
32095 kPa | 1572.5 kg/m3
32132 kPa | 1572.7 kg/m3
32164 kPa | 1572.9 kg/m3
32391 kPa | 1573.4 kg/m3
32884 kPa | 1574.5 kg/m3
32921 kPa | 1574.8 kg/m3
32959 kPa | 1574.9 kg/m3
33280 kPa | 1575.7 kg/m3
33348 kPa | 1575.9 kg/m3
33384 kPa | 1576 kg/m3
33426 kPa | 1576 kg/m3
33457 kPa | 1576.2 kg/m3
33499 kPa | 1576.3 kg/m3
33535 kPa | 1576.4 kg/m3
33572 kPa | 1576.5 kg/m3
33609 kPa | 1576.6 kg/m3
33661 kPa | 1576.7 kg/m3
33688 kPa | 1576.8 kg/m3
33731 kPa | 1576.9 kg/m3
33762 kPa | 1576.9 kg/m3
33793 kPa | 1577.1 kg/m3
33830 kPa | 1577.3 kg/m3
33873 kPa | 1577.3 kg/m3
33910 kPa | 1577.4 kg/m3
33948 kPa | 1577.5 kg/m3
33984 kPa | 1577.6 kg/m3
34026 kPa | 1577.7 kg/m3
34068 kPa | 1577.8 kg/m3
34110 kPa | 1577.9 kg/m3
34148 kPa | 1577.9 kg/m3
34186 kPa | 1578.2 kg/m3
34224 kPa | 1578.1 kg/m3
34267 kPa | 1578.2 kg/m3
34310 kPa | 1578.5 kg/m3
34350 kPa | 1578.6 kg/m3
34387 kPa | 1578.6 kg/m3
34414 kPa | 1578.7 kg/m3
34442 kPa | 1578.8 kg/m3
34456 kPa | 1578.8 kg/m3
34470 kPa | 1578.8 kg/m3
34478 kPa | 1578.9 kg/m3
34486 kPa | 1578.9 kg/m3
34492 kPa | 1579.1 kg/m3
34498 kPa | 1579 kg/m3
34504 kPa | 1578.9 kg/m3
34505 kPa | 1578.9 kg/m3
34506 kPa | 1579 kg/m3
34508 kPa | 1579 kg/m3
34509 kPa | 1579 kg/m3
34511 kPa | 1579 kg/m3 and 1579.2 kg/m3
34512 kPa | 1579 kg/m3 and 1579.1 kg/m3
34513 kPa | 1579.1 kg/m3
34514 kPa | 1579.2 kg/m3
34515 kPa | 1579 kg/m3 and 1578.9 kg/m3
34516 kPa | 1579.1 kg/m3
34517 kPa | 1579 kg/m3
34518 kPa | 1579 kg/m3
34519 kPa | 1578.9 kg/m3 and 1579 kg/m3 and 1579.1 kg/m3
34520 kPa | 1578.9 kg/m3 and 1579.1 kg/m3
34521 kPa | 1579 kg/m3 and 1578.9 kg/m3
34522 kPa | 1579 kg/m3
34523 kPa | 1579.1 kg/m3 and 1579 kg/m3
34524 kPa | 1579.1 kg/m3 and 1579 kg/m3
34525 kPa | 1579 kg/m3 and 1578.9 kg/m3
34526 kPa | 1579.1 kg/m3
34527 kPa | 1579 kg/m3
34528 kPa | 1579.1 kg/m3
